Active and inactive are the calls of the source. The calls are words filed in the database; no cut-off is given here.
Key:
[1] = tested on: HUVEC; test: Inhibition of neutrophil adhesion to IL4-stimulated HUVEC by leukocyte rolling assay; type: functional, cell-based; details: Homo sapiens
[2] = Cmax in Sprague-Dawley rat at 1 mg/kg, iv; type: ADME, organism-based; design: dose 1 mg/kg, route intravenous; details: in vivo
[3] = Clearance in Sprague-Dawley rat at 1 mg/kg, iv; type: ADME, organism-based; design: dose 1 mg/kg, route intravenous; details: in vivo
[4] = AUC in Sprague-Dawley rat at 1 mg/kg, iv; type: ADME, organism-based; design: dose 1 mg/kg, route intravenous; details: plasma
[5] = target: Dihydroorotate dehydrogenase (quinone), mitochondrial (Homo sapiens, UniProt Q02127)
Description: Inhibition of human recombinant DHOD expressed in Escherichia coli

[6] = target: P-selectin (Homo sapiens) (UniProt P16109); test: Inhibition of human recombinant P-selectin expressed in CHO cells by Biacore assay at 2 mM
[7] = target: T1, Cytochrome P450 2A6 (Homo sapiens, UniProt P11509); test: Inhibition of human CYP2A6; type: ADME
T1 sequence (P11509 whole entry): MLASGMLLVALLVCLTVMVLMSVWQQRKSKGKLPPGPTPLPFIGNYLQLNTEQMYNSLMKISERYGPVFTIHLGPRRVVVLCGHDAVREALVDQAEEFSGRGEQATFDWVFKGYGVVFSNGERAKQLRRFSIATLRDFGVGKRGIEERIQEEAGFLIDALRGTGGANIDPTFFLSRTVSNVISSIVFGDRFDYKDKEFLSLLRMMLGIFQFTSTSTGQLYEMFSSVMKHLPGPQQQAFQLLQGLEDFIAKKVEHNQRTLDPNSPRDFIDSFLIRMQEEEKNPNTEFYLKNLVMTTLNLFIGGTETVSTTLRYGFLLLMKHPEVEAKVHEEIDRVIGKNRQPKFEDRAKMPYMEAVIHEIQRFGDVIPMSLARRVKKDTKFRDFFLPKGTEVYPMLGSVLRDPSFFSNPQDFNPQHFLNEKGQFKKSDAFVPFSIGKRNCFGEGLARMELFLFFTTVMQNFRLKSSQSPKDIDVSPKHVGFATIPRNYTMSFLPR

[8] = target: Cytochrome P450 2C9 (Homo sapiens, UniProt P11712); test: Inhibition of human CYP2C9; type: ADME
[9] = target: Cytochrome P450 2D6 (Homo sapiens, UniProt P10635); test: Inhibition of human CYP2D6; type: ADME
[10] = organism: Rattus norvegicus; test: Toxicity in Lewis rat Freund's complete adjuvant-induced arthritis model; type: organism-based; details: in vivo
[11] = target: T2, Cytochrome P450 1A2 (Homo sapiens, UniProt P05177); test: Inhibition of human CYP1A2; type: ADME
T2 sequence (P05177 whole entry): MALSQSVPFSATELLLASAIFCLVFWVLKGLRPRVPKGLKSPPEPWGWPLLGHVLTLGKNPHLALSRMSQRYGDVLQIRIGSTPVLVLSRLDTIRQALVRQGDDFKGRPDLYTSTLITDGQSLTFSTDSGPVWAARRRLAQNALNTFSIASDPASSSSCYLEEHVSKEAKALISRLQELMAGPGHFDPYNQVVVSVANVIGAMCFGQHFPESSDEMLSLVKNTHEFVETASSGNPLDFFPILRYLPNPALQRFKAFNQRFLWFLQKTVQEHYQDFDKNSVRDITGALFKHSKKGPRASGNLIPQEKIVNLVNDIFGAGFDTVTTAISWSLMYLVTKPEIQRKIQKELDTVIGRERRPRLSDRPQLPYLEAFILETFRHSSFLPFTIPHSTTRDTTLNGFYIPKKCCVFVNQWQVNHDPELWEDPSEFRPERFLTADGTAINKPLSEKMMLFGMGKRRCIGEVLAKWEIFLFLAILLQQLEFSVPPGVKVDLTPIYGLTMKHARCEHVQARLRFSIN

[12] = tested on: Rattus norvegicus; test: Plasma concentration in Lewis rat Freund's complete adjuvant-induced arthritis model at 10 mg/kg, po; type: ADME, organism-based; design: dose 10 mg/kg, route oral; details: in vivo
[13] = target: Cytochrome P450 3A4 (Homo sapiens, UniProt P08684); test: Inhibition of human CYP3A4; type: ADME
[14] = tested on: Rattus norvegicus; test: Inhibition of carrageenan-induced paw edema in Sprague-Dawley rat at 50 mg/kg, po; type: functional
[15] = target: Cytochrome P450 2C19 (Homo sapiens, UniProt P33261); test: Inhibition of human CYP2C19; type: ADME
[16] = target: T3, Cytochrome P450 2C8 (Homo sapiens, UniProt P10632); test: Inhibition of human CYP2C8; type: ADME
T3 sequence (P10632 whole entry): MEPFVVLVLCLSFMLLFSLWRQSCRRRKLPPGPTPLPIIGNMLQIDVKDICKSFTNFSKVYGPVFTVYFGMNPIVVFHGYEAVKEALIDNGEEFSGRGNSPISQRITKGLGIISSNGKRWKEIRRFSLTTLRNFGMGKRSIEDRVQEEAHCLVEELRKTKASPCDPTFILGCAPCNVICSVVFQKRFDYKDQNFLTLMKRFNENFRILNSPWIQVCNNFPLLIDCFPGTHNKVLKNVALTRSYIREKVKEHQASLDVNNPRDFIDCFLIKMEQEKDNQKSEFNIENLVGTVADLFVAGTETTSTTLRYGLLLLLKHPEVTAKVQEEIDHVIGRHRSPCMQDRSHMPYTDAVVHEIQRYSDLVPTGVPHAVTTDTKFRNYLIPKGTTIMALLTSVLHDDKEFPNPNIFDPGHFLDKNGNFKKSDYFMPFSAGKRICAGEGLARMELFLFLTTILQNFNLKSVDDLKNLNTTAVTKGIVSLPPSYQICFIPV

[17] = tested on: Rattus norvegicus; test: Inhibition of carrageenan-induced paw edema in Sprague-Dawley rat at 0.5 mg/kg, po; type: functional
[18] = tested on: Rattus norvegicus; test: Inhibition of carrageenan-induced paw edema in Sprague-Dawley rat at 5 mg/kg, po; type: functional
[19] = tested on: Rattus norvegicus; test: Inhibition of carrageenan-induced paw edema in Sprague-Dawley rat at 10 mg/kg, po; type: functional
[20] = tested on: Rattus norvegicus; test: Inhibition of carrageenan-induced paw edema in Sprague-Dawley rat at 1 mg/kg, po; type: functional
[21] = target: Dihydroorotate dehydrogenase (quinone), mitochondrial (Rattus norvegicus) (UniProt Q63707)
Description: Antagonist activity against DHOD in rat

[22] = target: P-selectin (Homo sapiens) (UniProt P16109); test: Inhibition of human recombinant P-selectin expressed in CHO cells by Biacore assay at 6 mM
[23] = Oral bioavailability in rat; type: ADME, organism-based; details: in vivo
[24] = target: P-selectin (Homo sapiens) (UniProt P16109); test: Inhibition of human recombinant P-selectin expressed in CHO cells by Biacore assay at 250 uM
[25] = tested on: Rattus norvegicus; test: Inhibition of Freund's complete adjuvant-induced arthritis in Lewis rat at 5 mg/kg, po; type: functional, organism-based; design: dose 5 mg/kg

P-selectin (Homo sapiens), sequence (P16109 whole entry, looked up): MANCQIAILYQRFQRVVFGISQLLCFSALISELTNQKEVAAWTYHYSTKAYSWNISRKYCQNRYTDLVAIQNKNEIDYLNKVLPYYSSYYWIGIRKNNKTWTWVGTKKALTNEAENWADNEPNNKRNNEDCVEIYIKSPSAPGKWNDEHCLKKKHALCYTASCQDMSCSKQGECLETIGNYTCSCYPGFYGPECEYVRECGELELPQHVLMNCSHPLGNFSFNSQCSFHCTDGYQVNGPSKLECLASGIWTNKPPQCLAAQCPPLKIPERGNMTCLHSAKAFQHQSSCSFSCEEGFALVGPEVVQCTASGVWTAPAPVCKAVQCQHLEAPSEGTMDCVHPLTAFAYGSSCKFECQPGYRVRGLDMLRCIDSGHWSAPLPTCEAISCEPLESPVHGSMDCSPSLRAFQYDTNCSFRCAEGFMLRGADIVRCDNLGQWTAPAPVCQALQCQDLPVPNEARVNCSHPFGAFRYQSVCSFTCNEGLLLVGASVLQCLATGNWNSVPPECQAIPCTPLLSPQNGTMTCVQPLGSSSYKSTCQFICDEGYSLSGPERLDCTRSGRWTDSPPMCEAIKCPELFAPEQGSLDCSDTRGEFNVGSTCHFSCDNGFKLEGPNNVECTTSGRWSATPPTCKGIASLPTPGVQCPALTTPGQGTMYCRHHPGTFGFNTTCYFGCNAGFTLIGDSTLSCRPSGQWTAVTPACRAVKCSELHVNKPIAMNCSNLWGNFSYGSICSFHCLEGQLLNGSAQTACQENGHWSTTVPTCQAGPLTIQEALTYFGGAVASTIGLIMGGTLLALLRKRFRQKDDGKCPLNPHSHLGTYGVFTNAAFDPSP
Dihydroorotate dehydrogenase (quinone), mitochondrial, sequence (Q02127 whole entry): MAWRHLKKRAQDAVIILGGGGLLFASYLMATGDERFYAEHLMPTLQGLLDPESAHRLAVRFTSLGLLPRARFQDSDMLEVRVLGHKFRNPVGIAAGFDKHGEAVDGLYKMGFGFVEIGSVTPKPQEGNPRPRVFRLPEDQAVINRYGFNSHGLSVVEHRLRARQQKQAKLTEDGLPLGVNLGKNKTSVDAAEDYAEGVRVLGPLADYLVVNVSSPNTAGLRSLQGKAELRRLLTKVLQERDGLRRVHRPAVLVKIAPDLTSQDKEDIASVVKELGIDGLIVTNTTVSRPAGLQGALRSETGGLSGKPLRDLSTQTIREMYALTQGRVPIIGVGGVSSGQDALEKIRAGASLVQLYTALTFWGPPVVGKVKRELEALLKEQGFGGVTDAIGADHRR
Cytochrome P450 2D6, sequence (P10635 whole entry): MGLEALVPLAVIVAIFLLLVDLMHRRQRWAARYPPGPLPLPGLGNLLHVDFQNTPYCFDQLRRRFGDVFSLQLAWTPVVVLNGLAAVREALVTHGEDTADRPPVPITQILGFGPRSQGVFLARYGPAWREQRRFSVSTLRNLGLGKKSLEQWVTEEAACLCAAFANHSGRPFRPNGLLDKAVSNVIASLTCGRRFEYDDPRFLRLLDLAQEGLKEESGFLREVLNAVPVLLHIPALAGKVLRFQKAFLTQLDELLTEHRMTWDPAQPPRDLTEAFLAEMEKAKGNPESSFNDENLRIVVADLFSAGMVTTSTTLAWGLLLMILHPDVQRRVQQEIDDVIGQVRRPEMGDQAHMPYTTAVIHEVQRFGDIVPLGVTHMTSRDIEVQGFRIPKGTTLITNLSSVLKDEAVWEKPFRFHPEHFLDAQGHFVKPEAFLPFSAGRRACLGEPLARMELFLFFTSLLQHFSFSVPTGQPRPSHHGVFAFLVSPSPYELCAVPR
Cytochrome P450 2C19, sequence (P33261 whole entry): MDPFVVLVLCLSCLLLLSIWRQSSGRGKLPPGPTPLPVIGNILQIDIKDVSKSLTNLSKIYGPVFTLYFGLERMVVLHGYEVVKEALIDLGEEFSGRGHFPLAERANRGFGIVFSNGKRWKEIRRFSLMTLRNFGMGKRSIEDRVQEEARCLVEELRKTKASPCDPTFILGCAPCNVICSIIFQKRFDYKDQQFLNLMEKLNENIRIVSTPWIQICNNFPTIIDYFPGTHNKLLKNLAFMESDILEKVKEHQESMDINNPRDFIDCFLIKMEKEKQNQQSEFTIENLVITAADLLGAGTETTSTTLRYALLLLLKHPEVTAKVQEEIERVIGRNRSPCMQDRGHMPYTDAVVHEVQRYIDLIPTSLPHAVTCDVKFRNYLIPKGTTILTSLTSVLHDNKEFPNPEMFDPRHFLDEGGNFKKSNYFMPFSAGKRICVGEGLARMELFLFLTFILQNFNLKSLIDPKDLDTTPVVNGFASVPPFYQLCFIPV
Cytochrome P450 3A4, sequence (P08684 whole entry): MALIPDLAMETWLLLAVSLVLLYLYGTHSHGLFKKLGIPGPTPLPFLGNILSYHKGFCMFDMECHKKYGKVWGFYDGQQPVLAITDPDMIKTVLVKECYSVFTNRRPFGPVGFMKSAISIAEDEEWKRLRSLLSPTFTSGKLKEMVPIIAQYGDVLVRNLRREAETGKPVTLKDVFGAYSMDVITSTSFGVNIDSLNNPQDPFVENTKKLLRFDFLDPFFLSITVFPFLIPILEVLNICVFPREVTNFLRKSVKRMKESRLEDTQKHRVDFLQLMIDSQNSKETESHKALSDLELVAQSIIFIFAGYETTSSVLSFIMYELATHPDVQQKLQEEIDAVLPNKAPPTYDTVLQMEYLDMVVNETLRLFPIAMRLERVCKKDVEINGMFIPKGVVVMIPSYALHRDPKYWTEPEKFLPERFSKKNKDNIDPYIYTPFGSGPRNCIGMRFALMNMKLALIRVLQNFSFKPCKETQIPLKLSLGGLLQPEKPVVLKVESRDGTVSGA
Cytochrome P450 2C9, sequence (P11712 whole entry): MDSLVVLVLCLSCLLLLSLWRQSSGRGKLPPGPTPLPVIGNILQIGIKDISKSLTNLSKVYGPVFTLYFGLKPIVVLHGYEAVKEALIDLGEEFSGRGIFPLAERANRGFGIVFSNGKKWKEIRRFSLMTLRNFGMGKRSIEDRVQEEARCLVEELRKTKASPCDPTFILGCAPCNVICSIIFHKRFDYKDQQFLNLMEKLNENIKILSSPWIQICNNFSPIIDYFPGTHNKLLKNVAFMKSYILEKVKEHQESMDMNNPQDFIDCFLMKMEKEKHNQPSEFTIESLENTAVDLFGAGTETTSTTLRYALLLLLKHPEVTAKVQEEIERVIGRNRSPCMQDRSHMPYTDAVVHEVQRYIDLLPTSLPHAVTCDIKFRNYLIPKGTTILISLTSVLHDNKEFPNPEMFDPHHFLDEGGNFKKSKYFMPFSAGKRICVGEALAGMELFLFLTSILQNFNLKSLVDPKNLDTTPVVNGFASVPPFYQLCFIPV
Dihydroorotate dehydrogenase (quinone), mitochondrial (Rattus norvegicus), sequence (Q63707 whole entry): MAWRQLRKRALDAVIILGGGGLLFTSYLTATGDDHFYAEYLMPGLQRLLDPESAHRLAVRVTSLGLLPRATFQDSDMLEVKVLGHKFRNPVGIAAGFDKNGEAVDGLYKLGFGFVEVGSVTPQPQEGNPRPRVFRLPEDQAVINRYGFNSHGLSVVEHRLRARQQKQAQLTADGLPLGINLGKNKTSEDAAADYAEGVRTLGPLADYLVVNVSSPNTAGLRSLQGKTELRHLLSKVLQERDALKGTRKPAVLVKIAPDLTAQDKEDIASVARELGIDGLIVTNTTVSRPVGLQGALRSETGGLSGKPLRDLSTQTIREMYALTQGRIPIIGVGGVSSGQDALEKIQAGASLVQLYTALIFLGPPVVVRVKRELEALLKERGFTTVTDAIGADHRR

SMILES: Cc1ccc2c(C(=O)O)c(O)c(-c3ccc(C(F)(F)F)cc3)nc2c1C
- IC50 [1]: 7 µM
- Cmax [2]: 9 µM
- clearance [3]: 4.7 mL/min/kg
- AUC [4]: 8.58 µM·h

SMILES: CN(C)c1ccc(-c2cccc3c(C(=O)O)c(O)c(-c4ccc(Cl)cc4)nc23)cc1
- IC50 [1]: 20 µM

SMILES: O=C(O)c1c(O)c(-c2ccc(Cl)cc2)nc2ccc(OC(F)(F)F)cc12
- IC50 [1]: 25 µM

SMILES: CCc1cccc2c(C(=O)O)c(O)c(-c3ccc(Cl)cc3)nc12
- IC50 [1]: 10 µM

SMILES: Cc1cccc2c(C(=O)O)c(O)c(-c3ccc(Cl)cc3)nc12
- IC50 [1]: 13 µM
- IC50 [5]: 212 µM

SMILES: O=C(O)c1c(O)c(-c2ccc(Cl)cc2)nc2c(Br)cccc12
- IC50 [1]: 20 µM
- IC50 [5]: 132 µM

SMILES: O=C(O)c1c(O)c(-c2ccc(Cl)cc2)nc2ccc(Cl)cc12
- inhibition [6]: 38%

SMILES: O=C(O)c1ccc(-c2ccc3nc(-c4ccc(Cl)cc4)c(O)c(C(=O)O)c3c2)cc1
- IC50 [5]: 135 µM

SMILES: COc1ccc2c(C(=O)O)c(O)c(-c3ccc(Cl)cc3)nc2c1
- IC50 [5]: 151 µM

SMILES: Cc1ccc2c(C(=O)O)c(O)c(-c3ccc(OC(F)(F)F)cc3)nc2c1C
- IC50 [1]: 15 µM

SMILES: Cc1ccc2c(C(=O)O)c(O)c(-c3ccc(Cl)cc3)nc2c1C
- IC50 [7]: 20 µM
- IC50 [8]: 2 µM
- IC50 [9]: 17 µM
- Activity [10]: Non-toxic
- IC50 [11]: 4 µM
- concentration [12]: 1800 nM
- IC50 [13]: 7 µM
- inhibition in vivo at 50 mg/kg [14]: 15.6%
- IC50 [1]: 10 µM
- IC50 [15]: 1 µM
- IC50 [16]: 9 µM
- Cmax [2]: 13 µM
- inhibition in vivo at 0.5 mg/kg [17]: 10.8%
- inhibition in vivo at 5 mg/kg [18]: 10.3%
- inhibition in vivo at 10 mg/kg [19]: 14.1%
- clearance [3]: 6.2 mL/min/kg
- AUC [4]: 7.68 µM·h
- inhibition in vivo at 1 mg/kg [20]: 12.8%

SMILES: Nc1c(-c2ccc(-c3ccccc3)cc2)nc2ccc(F)cc2c1C(=O)O
- LD50 [21]: 20.5 mg/kg
- IC50 [5]: 0.012 µM

SMILES: COc1ccc2cc([C@H](C)C(=O)O)ccc2c1 [NAPROXEN]
- inhibition in vivo at 10 mg/kg [19]: 68.3%

SMILES: O=C(O)c1c(O)c(-c2ccc(Cl)cc2)nc2ccc(-c3ccsc3)cc12
- IC50 [5]: 134 µM

SMILES: Cc1cc(OC(F)(F)F)cc2c(C(=O)O)c(O)c(-c3ccc(Cl)cc3)nc12
- IC50 [1]: 15.5 µM

SMILES: O=C(O)c1c(O)c(-c2ccc(Cl)cc2)nc2c(OC(F)(F)F)cccc12
- IC50 [1]: 10.5 µM
- IC50 [5]: 130 µM

SMILES: CCN(CC)c1ccc(-c2nc3c(C)c(C)ccc3c(C(=O)O)c2O)cc1
- IC50 [1]: 19 µM

SMILES: Cc1ccc2c(C(=O)O)c(O)c(-c3ccc(Br)cc3)nc2c1C
- IC50 [1]: 6 µM
- Cmax [2]: 5.5 µM
- clearance [3]: 6.2 mL/min/kg
- AUC [4]: 6.52 µM·h

SMILES: O=C(O)c1c(O)c(-c2ccc(Cl)cc2)nc2ccc(-c3ccccc3)cc12
- IC50 [5]: 230 µM

SMILES: Cc1ccc2c(C(=O)O)c(O)c(-c3cccc(OC(F)(F)F)c3)nc2c1C
- IC50 [1]: 5 µM

SMILES: COc1cccc2c(C(=O)O)c(O)c(-c3ccc(Cl)cc3)nc12
- IC50 [5]: 306 µM

SMILES: COc1c(-c2ccccc2)nc2ccccc2c1C(=O)O
- inhibition [22]: 22%

SMILES: O=C(O)c1c(O)c(-c2ccc(Cl)cc2)nc2c(-c3ccccc3)cccc12
- IC50 [7]: 500 µM
- IC50 [8]: 8.2 µM
- bioavailability [23]: 24%
- IC50 [9]: 151 µM
- Activity [10]: Non-toxic
- IC50 [11]: 500 µM
- concentration [12]: 500 nM
- IC50 [13]: 55 µM
- IC50 [1]: 4.5 µM
- IC50 [15]: 146 µM
- IC50 [16]: 4.8 µM
- Cmax [2]: 9 µM
- clearance [3]: 9.1 mL/min/kg
- AUC [4]: 3.93 µM·h

SMILES: Cc1ccc2c(C(=O)O)c(O)c(-c3cccc(Cl)c3)nc2c1C
- IC50 [1]: 5 µM

SMILES: COc1ccc(-c2ccc3nc(-c4ccc(Cl)cc4)c(O)c(C(=O)O)c3c2)cc1
- inhibition [24]: 39%

SMILES: CCC(C)c1cccc2c(C(=O)O)c(O)c(-c3ccc(Cl)cc3)nc12 (stereo not drawn)
- IC50 [1]: 3 µM
- Cmax [2]: 6.7 µM
- IC50 [5]: 301 µM
- clearance [3]: 13.3 mL/min/kg
- AUC [4]: 3.45 µM·h

SMILES: CC(C)c1cccc2c(C(=O)O)c(O)c(-c3ccc(Cl)cc3)nc12
- IC50 [1]: 4.7 µM
- Cmax [2]: 7 µM
- IC50 [5]: 283 µM
- clearance [3]: 6.5 mL/min/kg
- AUC [4]: 6.7 µM·h

SMILES: O=C(O)c1c(O)c(-c2ccc(Cl)cc2)nc2c(C(F)(F)F)cccc12
- IC50 [1]: 13 µM
- IC50 [5]: 136 µM

SMILES: Oc1cc2ccccc2nc1-c1ccccc1
- Activity [22]: inactive

SMILES: O=C(O)c1c(O)c(-c2ccc(Cl)cc2)nc2c(Cl)cccc12
- IC50 [1]: 22 µM
- IC50 [5]: 141 µM

SMILES: Cc1ccc2c(C(=O)O)c(O)c(-c3ccc(C(C)C)cc3)nc2c1C
- IC50 [1]: 8 µM

SMILES: O=C(O)c1cc(-c2ccccc2)nc2ccccc12
- inhibition [22]: 22%

SMILES: Cc1ccc(-c2cc(C(F)(F)F)nn2-c2ccc(S(N)(=O)=O)cc2)cc1
- Activity [25]: Active
